Experimental data from US12146004B2, “Polymyxin compounds and uses thereof” (priority 2014, dated 2024).
Values after ≈ are worked out from the molar mass of the structure shown. Bridge positions count the residues as written; N and C are the ends. Square brackets hold non-standard residues; d marks the D form. Peptide text beside a SMILES is read from it. * marks the point of attachment. dCha = N[C@H](CC1CCCCC1)C(=O)O; X28 = NCCC(C(=O)*)c1ccccc1Cl; Dab = NCC[C@H](N)C(=O)O; Dap = NC[C@H](N)C(=O)O

What was measured:
Type in all cases: cell-based
Acinetobacter baumannii = system: Acinetobacter baumannii
In short: (§1)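 Each compound was tested against a panel of up to nine strains per Gram-negative species. The panel included strains that show elevated MICs to Polymyxin. Activity was recorded as MIC in μg/mL.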

Escherichia coli = system: Escherichia coli
In short: as §1

Klebsiella pneumoniae = system: Klebsiella pneumoniae
In short: as §1

Pseudomonas aeruginosa = system: Pseudomonas aeruginosa
In short: as §1

MIC A. baumanii 053 (Acinetobacter baumannii) [µg/mL] | MIC A. baumanii 056 (Acinetobacter baumannii) [µg/mL] | MIC A. baumanii ATCC BAA-747 (Acinetobacter baumannii) [µg/mL] | MIC A. baumanii NCTC 13424 (Acinetobacter baumannii) [µg/mL] | MIC E. coli 058 (Escherichia coli) [µg/mL] | MIC E. coli 061 (Escherichia coli) [µg/mL] | MIC E. coli ATCC 25922 (Escherichia coli) [µg/mL] | MIC E. coli NCTC 9001 (Escherichia coli) [µg/mL] | MIC K. pneumoniae 063 (Klebsiella pneumoniae) [µg/mL] | MIC K. pneumoniae 065 (Klebsiella pneumoniae) [µg/mL] | MIC K. pneumoniae ATCC 13882 (Klebsiella pneumoniae) [µg/mL] | MIC P. aeruginosa 068 (Pseudomonas aeruginosa) [µg/mL] | MIC P. aeruginosa 070 (Pseudomonas aeruginosa) [µg/mL] | MIC P. aeruginosa ATCC 27853 (Pseudomonas aeruginosa) [µg/mL] | MIC P. aeruginosa CCUG 59347 (Pseudomonas aeruginosa) [µg/mL] | also measured | SMILES
8 (≈ 6.87 µM) | 4 (≈ 3.43 µM) | 0.125 (≈ 0.107 µM) | 0.25 (≈ 0.215 µM) | 2 (≈ 1.72 µM) | 16 (≈ 13.7 µM) | 0.25 (≈ 0.215 µM) | 0.06 (≈ 0.0515 µM) | 16 (≈ 13.7 µM) | 1 (≈ 0.858 µM) | 0.25 (≈ 0.215 µM) | 4 (≈ 3.43 µM) | 4 (≈ 3.43 µM) | 0.125 (≈ 0.107 µM) | 0.5 (≈ 0.429 µM) | – | CC(C)C[C@@H]1NC(=O)[C@@H](CC2CCCCC2)NC(=O)[C@H](CCN)NC(=O)[C@@H](NC(=O)[C@H](CCN)NC(=O)[C@@H](NC(=O)C(CCN)c2cccc(Cl)c2)[C@@H](C)O)CCNC(=O)[C@H]([C@@H](C)O)NC(=O)[C@H](CCN)NC(=O)[C@H](CCN)NC1=O (single isomer, unassigned; isomer 2) [Example 55, 4-amino-2-(3-chlorophenyl) butanoyl polymyxin [D-cyclohexylalanine]-6 nonapeptide. isomer 2]
64 (≈ 56.6 µM) | 64 (≈ 56.6 µM) | 0.5 (≈ 0.442 µM) | 0.5 (≈ 0.442 µM) | 4 (≈ 3.54 µM) | 32 (≈ 28.3 µM) | 0.25 (≈ 0.221 µM) | 0.125 (≈ 0.111 µM) | 64 (≈ 56.6 µM) | 4 (≈ 3.54 µM) | 0.25 (≈ 0.221 µM) | 8 (≈ 7.08 µM) | 8 (≈ 7.08 µM) | 0.25 (≈ 0.221 µM) | 0.5 (≈ 0.442 µM) | – | CC(C)C[C@@H]1NC(=O)[C@@H](CC2CCCCC2)NC(=O)[C@H](CCN)NC(=O)[C@@H](NC(=O)[C@H](CCN)NC(=O)[C@@H](NC(=O)C(CN)Cc2ccccc2)C(C)O)CCNC(=O)[C@H]([C@@H](C)O)NC(=O)[C@H](CCN)NC(=O)[C@H](CCN)NC1=O (single isomer, unassigned; isomer 2) [Example 53, 3-amino-2-benzylpropanoyl polymyxin [D-cyclohexylalanine]-6 nonapeptide. Isomer 2]
32 (≈ 28.2 µM) | 16 (≈ 14.1 µM) | 0.25 (≈ 0.22 µM) | 0.25 (≈ 0.22 µM) | 8 (≈ 7.04 µM) | 32 (≈ 28.2 µM) | 0.125 (≈ 0.11 µM) | – | 64 (≈ 56.3 µM) | 8 (≈ 7.04 µM) | 0.125 (≈ 0.11 µM) | 8 (≈ 7.04 µM) | 32 (≈ 28.2 µM) | 0.25 (≈ 0.22 µM) | 0.5 (≈ 0.44 µM) | – | CC(C)C[C@@H]1NC(=O)[C@@H](CC2CCCCC2)NC(=O)[C@H](CCN)NC(=O)[C@@H](NC(=O)[C@H](CCN)NC(=O)[C@@H](NC(=O)C(CCN)c2cccs2)[C@@H](C)O)CCNC(=O)[C@H]([C@@H](C)O)NC(=O)[C@H](CCN)NC(=O)[C@H](CCN)NC1=O (single isomer, unassigned; isomer 2) [Example 70, 4-amino-2-(thiophen-2-yl)butanoyl polymyxin [D-cyclohexylalanine]-6 nonapeptide isomer 2]
>64 | >64 | >8 | – | 32 (≈ 27.7 µM) | >64 | 1 (≈ 0.866 µM) | – | >64 | >64 | – | 32 (≈ 27.7 µM) | 64 (≈ 55.4 µM) | 0.5 (≈ 0.433 µM) | – | MIC E. coli 059 (Escherichia coli): 32 µg/mL (≈ 27.7 µM); MIC E. coli 060 (Escherichia coli): 32 µg/mL (≈ 27.7 µM); MIC K. pneumoniae 062 (Klebsiella pneumoniae): >64 µg/mL; MIC K. pneumoniae 064 (Klebsiella pneumoniae): >64 µg/mL; MIC K. pneumoniae 066 (Klebsiella pneumoniae): >64 µg/mL; MIC K. pneumoniae 067 (Klebsiella pneumoniae): >64 µg/mL; MIC K. pneumoniae ATCC 4352 (Klebsiella pneumoniae): 0.5 µg/mL (≈ 0.433 µM) | CC(C)CC(CN)C(=O)N[C@H](C(=O)N[C@@H](CN)C(=O)N[C@H]1CCNC(=O)[C@H]([C@@H](C)O)NC(=O)[C@H](CCN)NC(=O)[C@H](CCN)NC(=O)[C@H](CC(C)C)NC(=O)[C@@H](Cc2ccc(Br)cc2)NC(=O)[C@H](CCN)NC1=O)C(C)O (single isomer, unassigned; isomer 1) [Example 13, 2-aminomethyl-4-methyl pentanoyl polymyxin L-Thr-L-Dap-polymyxin [D-(4-bromo Phe)]-6]heptapeptide. Isomer 1]
– | – | 0.5 (≈ 0.434 µM) | 0.5 (≈ 0.434 µM) | 8 (≈ 6.95 µM) | – | 0.125 (≈ 0.109 µM) | – | – | – | 0.25 (≈ 0.217 µM) | – | – | 0.5 (≈ 0.434 µM) | 0.5 (≈ 0.434 µM) | – | CC(C)C[C@@H]1NC(=O)[C@@H](CC2CCCCC2)NC(=O)[C@H](CCN)NC(=O)[C@@H](NC(=O)[C@H](CN)NC(=O)[C@@H](NC(=O)C(CCN)c2ccccc2Cl)[C@@H](C)O)CCNC(=O)[C@H]([C@@H](C)O)NC(=O)[C@H](CCN)NC(=O)[C@H](CCN)NC1=O (stereo partly drawn) [Example 76, 4-amino-2-(2-chlorophenyl) butanoyl L-Thr-L-Dap-polymyxin [D-cyclohexylalanine]-6 heptapeptide.] (X28-T[Dap][Dab][Dab][dCha]L[Dab][Dab]T; lactam 3-C)
